According to patent US7429482B2, “Screening tools for discovery of novel anabolic agents” (United States of America as represented by the Department …, priority 2005, dated 2008):

Columns and labels:
junB = assay: Acute denervation: junB mRNA in EDL and soleus (qPCR); assay type: in vivo, rat
GADD45 = assay: Chronic denervation: GADD45 mRNA in gastrocnemius (qPCR); assay type: in vivo, rat
Description: Male Wistar rats weighing 200-250 gm (Taconic Farms, Germantown, N.Y.) were provided food and water ad libitum and were housed in a temperature and humidity controlled environment providing a 12:12 hour day-night cycle. For surgical procedures, animals were anesthetized with ketamine/xylazine. The left sciatic nerve was exposed by blunt dissection, and a 1 to 2 mm piece of this nerve was excised just below the level of the femoral head. A sham surgery was performed on the right hind limb in which the sciatic nerve was exposed but was not transected. Twenty eight days later, animals were anesthetized, and Alzet pumps were implanted subcutaneously on the back. […] Testosterone levels after replacement were approximately 15 nM, a high-normal range for rats of this age. Animals were sacrificed 3, 7 or 28 days after implantation of the miniosmotic pumps by inhalation of carbon dioxide. Gastrocnemius muscles were excised and weighed, then flash frozen on dry ice and stored at −80° C.
Total RNA was extracted from skeletal muscle (20 mg) by homogenization in guanidine thiocyanate using a Polytron followed by extraction of total RNA with phenol-chloroform as described by (Chomczynski and Sacchi, Anal Biochem 162: 156-159, 1987). Total RNA was further enriched using RNAeasy minicolumns (Qiagen, Valencia, Calif.). This procedure included digestion of contaminating DNA on the column with RNAse-free DNAse (Qiagen). Total RNA was eluted and quantified by absorbance at 260 nm. One μg of total RNA was used to prepare a cDNA library by reverse transcription (High Capacity cDNA Archive Kit, Applied Biosystems). Libraries were diluted 25-fold with water. Real time PCR was performed Taqman 2×PCR buffer (Applied Biosystems) using an Applied Biosystems 7500 thermocycler. Levels of gene expression in the denervated muscle were expressed as fold induction relative to muscle from the sham-denervated leg of animals administered vehicle. […] Fold-induction was determined using the 2^−ΔΔCt method, using expression of 18S RNA as the normalization control. […]

human IGF-1 promoter = assay: Human IGF-1 promoter luciferase reporter assay in HepG2 cells; assay type: cell-based
Description: pREP4.hAR, expressing full length human AR, and pCMV.Sport.β-Gal, expressing β-galactosidase under a CMV promoter, were as described (Zhao et al., Steroids 69: 357-366, 2004). pcDNA5.rGR, expressing rat glucocorticoid receptor, was provided by Dr. Diane Robins (University of Michigan). The rARC562G vector expressing rat AR with a C562G mutation in the DBD, which results in a loss of DNA binding. The IGF-1 reporter genes pOLuc.1630, pOLuc1300, pOLuc926, pOLuc 320 were provided by Dr. Peter Rotwein (Oregon Health & Science University). These reporters expressed firefly luciferase under the control of 320 to 1630 bases upstream of the transcriptional start site of the human IGF-1 promoter as described in (Kim et al., Mol Endocrinol 5: 1964-1972, 1991). pEGX 4T-1 hAR2, expressing GST fused to the N-terminus of AR DNA-binding domain, was provided by Robert J. Matusik, Ph.D. (Vanderbuilt University Medical Center). pRL-CMV expressing Renilla luciferase was from Promega (Madison, Wis.).
HepG2 cells (ATCC, Bethesda, Md.) were maintained in Dulbecco's modified Eagle's medium (DMEM), supplemented with 10% fetal bovine serum (FBS) and antibiotics (penicillin 100 U/ml, streptomycin 100 μg/ml). Cells were seeded at 5×10^4 cells/per well into wells of 24-well plates containing DMEM supplemented with 10% charcoal-dextran stripped FBS (CDS-FBS). The next day, cells were transfected with a total of 300 ng DNA per well using Lipofectamine Plus (Invitrogen) with plasmids as indicated in the figure legends. Three hours after transfection, cells were covered with DMEM supplemented with 10% CDS-FBS and either hormone dissolved in ethanol, or ethanol, as indicated in the figures. […] After overnight incubation, activities of firefly and Renilla luciferase were determined using the Dual Luciferase Assay system (Promega).
Reporter plasmids expressing firefly luciferase under the control of upstream regions of the IGF-1 promoter were constructed by PCR amplification of segments of interest using primers shown in Table 2, using pOLuc-1630 as a template. The location of each amplified fragment is relative to the transcriptional start site. PCR amplification was conduced using a high fidelity Taq polymerase (Pfx, Invitrogen). PCR products were cloned into pCR2.1-TOPO TA (Invitrogen) and the sequences of the inserts were verified. Inserts were excised with Kpn I and Xho I, and were subcloned into pGL3-Promoter (Promega) at these same sites. PGL3-Promoter expresses firefly luciferase under the control of a minimal promoter.

[1] = HepG2 + AR, increasing doses of testosterone
[2] = HepG2 + AR, testosterone (FIG. 17)

Compound	junB expression (junB; denervated EDL)	junB expression (junB; denervated soleus)	increase in junB expression (junB; soleus and EDL from sham-denervated limbs, tendency)	GADD45 expression (GADD45; denervated muscle, after 3 and 7-days, not significant)	effect on GADD45 expression (GADD45; denervated muscle, after 28-days infusion)	GADD45 expression (GADD45; sham-denervated muscle)	activation of the upstream promoter of the human IGF-1 gene (human IGF-1 promoter; Hep G2 cells, FIG. 18)	dose at which induction of luciferase expression begins, pGL3-230 (ARE1) (human IGF-1 promoter; HepG2 + AR) [nM]	induction of pGL3-32 at the lowest concentration tested (human IGF-1 promoter; HepG2 + AR, 0.05 nM testosterone) [fold]	maximal induction and sensitivity, pGL3-13A (ARE2) (human IGF-1 promoter; [1])	plateau of induction, pGL3-32 (both AREs) (human IGF-1 promoter; [1]) [fold]	plateau of induction, pGL3-230 (ARE1) (human IGF-1 promoter; [1])	increase in luciferase expression, construct containing ARE2 (pGL3-13A) (human IGF-1 promoter; HepG2 + AR, testosterone)	increase in luciferase expression, reporters including ARE1 (pGL3-230, pGL3-22) (human IGF-1 promoter; HepG2 + AR, testosterone)	induction of reporter containing both ARE1 and ARE2 (pGL3-32) (human IGF-1 promoter; HepG2 + AR, testosterone)	responsiveness of reporter with 100 bases downstream of ARE2 (pGL3-25a) (human IGF-1 promoter; HepG2 + AR, testosterone)	activation of reporter p3-13a (ARE2) (human IGF-1 promoter; [2])	activation of reporter p3-32 (both AREs) (human IGF-1 promoter; [2]) [fold]	induction of luciferase expression with DBD mutant AR (AR-C562G) (human IGF-1 promoter; HepG2, pGL3-22, pGL3-13A, pGL3-32, testosterone 50 nM)
C[C@]12CC[C@H]3[C@@H](CCC4=CC(=O)CC[C@@H]43)[C@@H]1CC[C@@H]2O [nandrolone]	significantly reduced	tended to reduce	approximately 2 fold	tended to reduce	lost	no appreciable effect	–	–	–	–	–	–	–	–	–	–	–	–	–
C[C@]12CC[C@H]3[C@@H](CCC4=CC(=O)CC[C@@]43C)[C@@H]1CC[C@@H]2O [testosterone]	–	–	–	–	–	–	activated	0.25	~10	intermediate	25	approximately 8 fold	more than 20 fold	more than 5 fold	greatest induction	Little androgen responsiveness	approximately 20 fold	~30	virtually abolished
